Like-named read-outs stand apart in the source and are kept apart here.
Columns and labels:
[1] = Hygroscopicity test of various salts (Chinese Pharmacopoeia 2010, Part II, Appendix XIX J); format: physicochemical; conditions: HR = 80% ± 2
Protocol: The various acid addition salts of the compound of Formula I were tested according to “Guiding Principles for Drug Hygroscopicity Test” described in the Chinese Pharmacopoeia, 2010 edition, Part II, Appendix XIX J. The increased weights by hygroscopy of the samples were calculated respectively, and the results are shown in Table 11.

[2] = Stability test of various salts, high temperature and high humidity (Chinese Pharmacopoeia 2010, Part II, Appendix XIX C); format: physicochemical; conditions: for Purity before test: before high temperature and high humidity test
Protocol: The stability of the various acid addition salts of the compound of Formula I were tested according to the method described in the Chinese Pharmacopoeia, 2010 edition, Part II, Appendix XIX C.

[3] = Pharmacokinetic test in SD rats, intragastric 50 mg/kg of salts and crystalline forms; format: in vivo; conditions: 50 mg/kg (in free base)
Protocol: Number and gender: 20, males;
Twenty male SPF SD rats were randomly divided into 4 groups, fasted (free access to water) overnight, and then intragastrically administered with 50 mg/kg of the crystalline Form I of the mesylate of the compound of Formula I (Example 11), 50 mg/kg of the crystalline Form II of the mesylate of the compound of Formula I (Example 12), 50 mg/kg of the crystalline Form VIII of the mesylate of the compound of Formula I (Example 19) and 50 mg/kg of the hydrochloride salt of the compound of Formula I (Example 7), respectively (in basic group). Blood samples (0.2˜0.3 mL) were taken from the orbital of the rats at the blood collection time points 0.25 h, 0.5 h, 1 h, 2 h, 3 h, 4 h, 6 h, 8 h, 10 h, 24 h, 30 h and 48 h after administration. The whole blood collected was then placed in EDTA-K2 centrifuge tubes, stored at 4° C., and centrifuged for 10 min at a speed of 4000 rpm at 4° C. within 0.5 h to separate plasma. After the collection of all the plasma, it was stored at −20° C. within 1 h. Pharmacokinetic parameters (PK parameters) were calculated using DAS 3.2.1 software according to the non-compartment statistical moment theory, and the results are shown in Table 15.

IDH2 (R172K, 40-end) = target: T1, IDH2 (R172K, 40-end) (Homo sapiens, UniProt P48735, R172K); assay: Inhibitory activity test against IDH2 (NADPH decrease, diaphorase/resazurin fluorescence); format: biochemical
T1 sequence (P48735 40-452 R172K): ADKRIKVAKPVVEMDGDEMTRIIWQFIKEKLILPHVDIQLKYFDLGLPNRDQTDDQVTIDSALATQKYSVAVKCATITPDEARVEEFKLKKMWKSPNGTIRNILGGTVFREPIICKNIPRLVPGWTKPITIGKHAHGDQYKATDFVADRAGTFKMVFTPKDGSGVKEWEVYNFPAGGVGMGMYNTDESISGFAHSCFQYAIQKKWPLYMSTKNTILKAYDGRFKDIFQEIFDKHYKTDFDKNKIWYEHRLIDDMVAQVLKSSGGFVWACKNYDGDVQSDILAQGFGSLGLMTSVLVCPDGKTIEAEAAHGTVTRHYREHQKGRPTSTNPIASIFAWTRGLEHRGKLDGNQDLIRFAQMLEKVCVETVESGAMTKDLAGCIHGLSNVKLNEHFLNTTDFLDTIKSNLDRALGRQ
Protocol: The inhibitory activity of the compound of the present application against IDH2 (R172K, 40-end) was determined by using the following method.
The inhibitory activity of a compound against IDH2 (R172K, 40-end) was determined by the decrease of a helper factor NADPH (reduced coenzyme II). The test compound was pre-incubated with an enzyme and NADPH, and then a reaction was initiated by the addition of a-KG, and performed for 120 minutes under a linear condition. Then, the reaction was terminated by the addition of diaphorase (lipoamide dehydrogenase) and the corresponding substrate resazurin. Diaphorase terminated the IDH2m reaction by decreasing the available helper factor NADPH, which oxidized NADPH to NADP (oxidized coenzyme II), and reduced resazurin to highly fluorescent resorufin. The amount of remaining helper factor NADPH after a specific reaction time was quantified via an easily detectable fluorophore.
Specifically, 2.5 μl of a 3-fold gradient diluted test compound was added to a 384-well plate, and then 5 μl of a reaction buffer (20 mM Tris-HCl, PH7.5; 150 mM NaCl; 10 mM MgCl2; 10 mM MnCl2; 0.4 mg/ml BSA and 2 mM DTT) containing 80 nM IDH2 (R172K, 40-end) and 40 μM NADPH was added. Then, the resulting test mixture was incubated for 120 minutes at a temperature of 23° C., and then 2.5 μl of the reaction buffer containing 4 mM a-KG was added to initiate the reaction. After incubating for 120 minutes at room temperature, 5 μl of a termination mixture (0.4 U/ml diaphorase and 40 μM resazurin) prepared with the reaction buffer was added to convert resazurin to resorufin to determine the remaining NADPH.

[4] = test system: relapsed and refractory AML; conditions: cited from earlier work
[5] = Pharmacokinetic test in rats, single intragastric dose of 5 mg/kg; format: in vivo; conditions: male rats
Protocol: Healthy male adult rats (7-9 weeks old) were used, each group of animals (3 male rats) was intragastrically administered once at a single dose of 5 mg/kg. The animals in the intragastric administration group were fasted overnight before this study. The fasting time period was from 10 hours before administration to 4 hours after administration.
Blood samples were taken at 0.25, 0.5, 1, 2, 4, 6, 8 and 24 h after administration. The animals were anesthetized with isoflurane using a small animal anesthesia machine, and then 0.3 mL whole blood samples were taken from the fundus venous plexus. The blood samples were placed in heparin anticoagulant tubes, and centrifuged for 5 min at 4° C. and 4000 rpm. The resulting plasma samples were transferred to centrifuge tubes, and stored at −80° C. until analysis.
Verified liquid chromatography-tandem mass spectrometry (LC-MS/MS) method was used to analyze the plasma samples. Plasma concentration-time data of individual animals were analyzed using WinNonlin (Professional Edition, version 6.3; Pharsight Company) software. The non-compartmental model was introduced for concentration analysis. The pharmacokinetic parameters (PK parameters) of the compounds were calculated.

[6] = listed as The crystalline Form VIII of the mesylate of the compound of Formula I, 50 mg/kg
[7] = male, SD, rat, plasma, po, 50 mg/kg
[8] = listed as The crystalline Form II of the mesylate of the compound of Formula I, 50 mg/kg

SMILES: CC(C)(C)ONc1nc(Nc2ccnc(C(F)(F)F)c2)nc(-c2cccc(C(F)(F)F)n2)n1.CS(=O)(=O)O [4-(tert-butoxyamino)-6-(6-(trifluoromethyl)pyridin-2-yl)-N-(2-(trifluoromethyl)pyridin-4-yl)-1,3,5-triazin-2-amine methanesulfonic acid salt]
- Increased Weights by Hygroscopy [1]: 1.0%
- Purity after high temperature and high humidity test [2]: 99.22%
- Purity before test [2]: 98.82%
- AUC(0-t) [3, 6]: 42.249 µg·h/mL
- AUC(0-∞) [3, 6]: 43.976 µg·h/mL
- Cmax [3, 6]: 2.102 µg/mL
- MRT(0-t) [3, 6]: 15.0 h
- T1/2 [3, 6]: 9.53 h
- Tmax [3, 6]: 8.80 h
- AUC(0-inf) [3, 7]: 47.4 µg·h/mL
- half-life [3, 7]: 10.4 h
- AUC(0-t) ([3]; male, SD, rat, plasma, po, 50 mg/kg, read-out: AUC(0-t)): 43.9 µg·h/mL
- Cmax ([3]; male, SD, rat, plasma, po, 50 mg/kg, read-out: Cmax): 1.73 µg/mL
- MRT last ([3]; male, SD, rat, plasma, po, 50 mg/kg, read-out: MRT(0-t)): 16.5 h
- Tmax ([3]; male, SD, rat, plasma, po, 50 mg/kg, read-out: Tmax): 6.6 h

SMILES: CC(C)(O)CNc1nc(Nc2ccnc(C(F)(F)F)c2)nc(-c2cccc(C(F)(F)F)n2)n1 [AG-221, Enasidenib]
- IC50 (IDH2 (R172K, 40-end)): 0.068 µM
- complete remission rate (CR) [4]: up to 27%
- overall response rate (ORR) [4]: up to 41%
- effective patients who insist on the treatment for at least 6 months ([4]; effective patients): 76%
- effective patients with a stable condition ([4]; effective patients): 44%

SMILES: CC(C)(C)ONc1nc(Nc2ccnc(C(F)(F)F)c2)nc(-c2cccc(C(F)(F)F)n2)n1.O=C(O)/C=C\C(=O)O [Maleate (Example 10)]
- Increased Weights by Hygroscopy [1]: 2.2%

SMILES: CC(C)(C)ONc1nc(Nc2ccnc(C(F)(F)F)c2)nc(-c2cccc(C(F)(F)F)n2)n1 [The compound of Formula I, 4-(tert-butoxyamino)-6-(6-(trifluoromethyl)pyridin-2-yl)-N-(2-(trifluoromethyl)pyridin-4-yl)-1,3,5-triazin-2-amine]
- inhibitory activity compared with AG-221 (in words) (IDH2 (R172K, 40-end); IDH2 (R172K, 40-end)): better inhibitory activity than AG-221
- IC50 (IDH2 (R172K, 40-end); IDH2 (R172K, 40-end), 80 nM enzyme, 40 μM NADPH, read-out: IC50): 0.032 µM
- half-life (in words) [5]: long half-life
- plasma concentration compared with AG-221 at the same dosage (in words) [5]: higher than AG-221

SMILES: CC(C)(C)ONc1nc(Nc2ccnc(C(F)(F)F)c2)nc(-c2cccc(C(F)(F)F)n2)n1.Cl [The hydrochloride salt (Example 7)]
- Increased Weights by Hygroscopy [1]: 0.9%
- Purity after high temperature and high humidity test [2]: 99.62%
- Purity before test [2]: 98.85%
- AUC(0-t) [3]: 48.5709 µg·h/mL
- AUC(0-∞) [3]: 55.2521 µg·h/mL
- Cmax [3]: 1.642 µg/mL
- MRT(0-t) [3]: 18.02 h
- T1/2 [3]: 13.67 h
- Tmax [3]: 10.6 h

SMILES: CC(C)(C)ONc1nc(Nc2ccnc(C(F)(F)F)c2)nc(-c2cccc(C(F)(F)F)n2)n1.CS(=O)(=O)O [The mesylate (Example 12), 4-(tert-butoxyamino)-6-(6-(trifluoromethyl)pyridin-2-yl)-N-(2-(trifluoromethyl)pyridin-4-yl)-1,3,5-triazin-2-amine methanesulfonic acid salt]
- AUC(0-t) [3, 8]: 42.249 µg·h/mL
- AUC(0-∞) [3, 8]: 43.976 µg·h/mL
- Cmax [3, 8]: 2.102 µg/mL
- MRT(0-t) [3, 8]: 15.0 h
- T1/2 [3, 8]: 9.53 h
- Tmax [3, 8]: 8.80 h

SMILES: CC(C)(C)ONc1nc(Nc2ccnc(C(F)(F)F)c2)nc(-c2cccc(C(F)(F)F)n2)n1.Cc1ccc(S(=O)(=O)O)cc1 [The p-toluenesulfonate (Example 9)]
- Increased Weights by Hygroscopy [1]: 0.7%
- Purity after high temperature and high humidity test [2]: 97.63%
- Purity before test [2]: 98.79%

SMILES: CC(C)(C)ONc1nc(Nc2ccnc(C(F)(F)F)c2)nc(-c2cccc(C(F)(F)F)n2)n1.O=S(=O)(O)O [The sulfate (Example 8)]
- Increased Weights by Hygroscopy [1]: 1.3%
- Purity after high temperature and high humidity test [2]: 93.58%
- Purity before test [2]: 99.30%

From patent publication US11021464B2, “Crystalline forms of 4-(tert-butoxyamino)-6-(6-(trifluoromethyl)pyridin-2-yl)-N-(2-(trifluoromethyl)pyridin-4-yl)-1,3,5-triazin-2-amine methanesulfonic acid salt” (CHIA TAI TIANQING PHARMACEUTICAL GROUP CO., LTD., priority 2017, dated 2021)
